test system: bromodomain; assay: at least one of the bromodomain cell assays of Example 57; assay type: cell-based; settings: at least one of the bromodomain cell assays described in Example 57; read-out: IC50 in at least one of the bromodomain cell assays

Compound	IC50
Cc1noc(C)c1-c1cnc2c(c1)c(C(c1ccccn1)c1ccccn1)cn2-c1ccc(CO)cc1 [P-0736, [4-[3-[bis(2-pyridyl)methyl]-5-(3,5-dimethylisoixazol-4-yl)pyrrolo[2,3-b]pyridin-1-yl]phenyl]methanol]	< 10 µM
[2H]C([2H])([2H])c1noc(C([2H])([2H])[2H])c1-c1cnc2c(-c3cnn(CC(F)(F)F)c3)cn(CC3CCC(F)(F)CC3)c2c1 [P-0615, 4-[1-[(4,4-difluorocyclohexyl)methyl]-3-[1-(2,2,2-trifluoroethyl)pyrazol-4-yl]pyrrolo[3,2-b]pyridin-6-yl]-3,5-bis(trideuteriomethyl)isoxazole]	< 10 µM
Cc1noc(C)c1-c1ccc2c(-c3ccc(B(O)O)cc3)cn(CC3CCC(F)(F)CC3)c2c1 [P-0749, [4-[1-[(4,4-difluorocyclohexyl)methyl]-6-(3,5-dimethylisoxazol-4-yl)indol-3-yl]phenyl]boronic acid]	< 10 µM
Cc1noc(C)c1-c1cnc2c(I)cn(C(c3ccccc3)c3ccccc3)c2c1 [P-0616, 4-(1-benzhydryl-3-iodo-pyrrolo[3,2-b]pyridin-6-yl)-3,5-dimethyl-isoxazole]	< 10 µM
Cc1noc(C)c1-c1ccc2c(-c3ccc(P(=O)(O)O)cc3)cn(CC3CCC(F)(F)CC3)c2c1 [P-0747, [4-[1-[(4,4-difluorocyclohexyl)methyl]-6-(3,5-dimethylisoxazol-4-yl)indol-3-yl]phenyl]phosphonic acid]	< 10 µM
Cc1noc(C)c1-c1ccc2c(-c3ccc(C(=O)O)cc3)cn([C@@H](c3ccccc3)c3ccccn3)c2c1 [P-0751, 4-[6-(3,5-dimethylisoxazol-4-yl)-1-[(S)-phenyl(2-pyridyl)methyl]indol-3-yl]benzoic acid]	< 10 µM
Cc1noc(C)c1-c1cnc2c(c1)c(C(c1ccccn1)c1ccccn1)cn2-c1ccc(C(=O)O)cn1 [P-0737, 6-[3-[bis(2-pyridyl)methyl]-5-(3,5-dimethylisoxazol-4-yl)pyrrolo[2,3-b]pyridin-1-yl]pyridine-3-carboxylic acid]	< 10 µM
Cc1noc(C)c1-c1ccc2c(-c3ccc(C4(C(=O)O)CC4)cc3)cn(CC3CCC(F)(F)CC3)c2c1 [P-0748, 1-[4-[1-[(4,4-difluorocyclohexyl)methyl]-6-(3,5-dimethylisoxazol-4-yl)indol-3-yl]phenyl]cyclopropanecarboxylic acid]	< 10 µM
CCOC(=O)c1ccc(-c2cn([C@@H](c3ccccc3)c3ccccn3)c3cc(-c4c(C)noc4C)ccc23)cc1 [P-0752, ethyl 4-[6-(3,5-dimethylisoxazol-4-yl)-1-[(S)-phenyl(2-pyridyl)methyl]indol-3-yl]benzoate]	< 10 µM
Cc1ccc(-c2cn([C@@H](C)c3ccccn3)c3cc(-c4cc(C)c(=O)n(C)c4)cnc23)cc1 [P-0791, 1,3-dimethyl-5-[3-(p-tolyl)-1-[(1S)-1-(2-pyridyl)ethyl]pyrrolo[3,2-b]pyridin-6-yl]pyridin-2-one]	< 10 µM
[2H]C([2H])([2H])c1ccc(-c2cn([C@@H](c3ccccc3)c3ccccn3)c3cc(-c4c(C)noc4C)cnc23)cc1 [P-0786, 3,5-dimethyl-4-[1-[(S)-phenyl(2-pyridyl)methyl]-3-[4-(trideuteriomethyl)phenyl]pyrrolo[3,2-b]pyridin-6-yl]isoxazole]	< 10 µM
Cc1noc(C)c1-c1cnc2c(c1)c(C(c1ccccc1)c1ccccc1)cn2-c1ccc(CO)cc1 [P-0741, [4-[3-benzhydryl-5-(3,5-dimethylisoxazol-4-yl)pyrrolo[2,3-b]pyridin-1-yl]phenyl]methanol]	< 10 µM
[2H]C([2H])([2H])c1ccc(-c2cn([C@H](c3ccccc3)c3ccccn3)c3cc(-c4c(C)noc4C)cnc23)cc1 [P-0787, 3,5-dimethyl-4-[1-[(R)-phenyl(2-pyridyl)methyl]-3-[4-(trideuteriomethyl)phenyl]pyrrolo[3,2-b]pyridin-6-yl]isoxazole]	< 10 µM
Cc1noc(C)c1-c1ccc2c(-c3ccc(C(=O)O)cc3)cn([C@H](c3ccccc3)c3ccccn3)c2c1 [P-0755, 4-[6-(3,5-dimethylisoxazol-4-yl)-1-[(R)-phenyl(2-pyridyl)methyl]indol-3-yl]benzoic acid]	< 10 µM
Cc1ccc(-c2cn([C@H](c3ccccc3)c3ccccn3)c3cc(-c4c(C)noc4C)ccc23)cc1 [P-0790, 3,5-dimethyl-4-[1-[(R)-phenyl(2-pyridyl)methyl]-3-(p-tolyl)indol-6-yl]isoxazole]	< 10 µM
Cc1noc(C)c1-c1cnc2c(-c3ccc([N+](=O)[O-])nc3)cn([C@@H](c3ccccc3)c3ccccn3)c2c1 [P-0719, 3,5-dimethyl-4-[3-(6-nitro-3-pyridyl)-1-[(S)-phenyl(2-pyridyl)methyl]pyrrolo[3,2-b]pyridin-6-yl]isoxazole]	< 10 µM
Cc1noc(C)c1-c1ccc2c(-c3cnn(C)c3)cn(S(=O)(=O)C3CCCC3)c2c1 [P-0231, 4-[1-cyclopentyl-sulfonyl-3-(1-methyl-pyrazol-4-yl)indol-6-yl]-3,5-dimethyl-isoxazole]	< 10 µM
Cc1noc(C)c1-c1cnc2c(-c3ccc4c(c3)COC4=O)cn(CC3CCC(F)(F)CC3)c2c1 [P-0796, 5-[1-[(4,4-difluorocyclohexyl)methyl]-6-(3,5-dimethylisoxazol-4-yl)pyrrolo[3,2-b]pyridin-3-yl]-3H-isobenzofuran-1-one]	< 10 µM

More lines, now with the values ahead:

IC50	Compound
< 10 µM	Cc1noc(C)c1-c1cnc2c(-c3ccc(CC(=O)O)cc3)cn(CC3CCOCC3)c2c1 [P-0771, 2-[4-[6-(3,5-dimethylisoxazol-4-yl)-1-(tetrahydropyran-4-ylmethyl)pyrrolo[3,2-b]pyridin-3-yl]phenyl]acetic acid]
< 10 µM	[2H]C([2H])([2H])c1ccc(-c2cn(CC3CCCCC3)c3cc(-c4c(C)noc4C)cnc23)cc1 [P-0785, 4-[1-(cyclohexylmethyl)-3-[4-(trideuteriomethyl)phenyl]pyrrolo[3,2-b]pyridin-6-yl]-3,5-dimethyl-isoxazole]
< 10 µM	CCOC(=O)c1ccc(-c2cn([C@@H](c3ccccc3)c3ccccn3)c3cc(-c4c(C)noc4C)cnc23)cc1 [P-0716, ethyl 4-[6-(3,5-dimethylisoxazol-4-yl)-1-[(S)-phenyl(2-pyridyl)methyl]pyrrolo[3,2-b]pyridin-3-yl]benzoate]
< 10 µM	COC(=O)c1ccc(-c2cn(CC3CCCCC3)c3cc(-c4c(C)noc4C)cnc23)cc1 [P-0706, methyl 4-[1-(cyclohexylmethyl)-6-(3,5-dimethylisoxazol-4-yl)pyrrolo[3,2-b]pyridin-3-yl]benzoate]
< 10 µM	COC(=O)c1ccc(-c2cn(C(c3ccccc3)c3ccccn3)c3cc(-c4c(C)noc4C)cnc23)cc1 (stereo not drawn) [P-0610, methyl 4-[6-(3,5-dimethylisoxazol-4-yl)-1-[phenyl(2-pyridyl)methyl]pyrrolo[3,2-b]pyridin-3-yl]benzoate]
< 10 µM	Cc1ccc(-c2cn(CC3CCOCC3)c3cc(-c4c(C)noc4C)cnc23)cc1 [P-0793, 3,5-dimethyl-4-[3-(p-tolyl)-1-(tetrahydropyran-4-ylmethyl)pyrrolo[3,2-b]pyridin-6-yl]isoxazole]
< 10 µM	Cc1ccc(-c2cn(CC3(C)CCCCC3)c3cc(-c4c(C)noc4C)cnc23)cc1 [P-0792, 3,5-dimethyl-4-[1-[(1-methylcyclohexyl)methyl]-3-(p-tolyl)pyrrolo[3,2-b]pyridin-6-yl]isoxazole]
< 10 µM	Cc1noc(C)c1-c1cnc2c(-c3ccc(C(C)(C)C(=O)O)cc3)cn(CC3CCOCC3)c2c1 [P-0773, 2-[4-[6-(3,5-dimethylisoxazol-4-yl)-1-(tetrahydropyran-4-ylmethyl)pyrrolo[3,2-b]pyridin-3-yl]phenyl]-2-methyl-propanoic acid]
< 10 µM	CCOC(=O)c1ccc(-c2cn([C@H](c3ccccc3)c3ccccn3)c3cc(-c4c(C)noc4C)cnc23)cc1 [P-0727, ethyl 4-[6-(3,5-dimethylisoxazol-4-yl)-1-[(R)-phenyl(2-pyridyl)methyl]pyrrolo[3,2-b]pyridin-3-yl]benzoate]

test system: MV-4-11 cells; assay: Oncology cell growth assay MV-4-11 (CellTiter Glo); assay type: cell-based; settings: Homo sapiens, MV4-11, 72 h; MV-4-11, 3d growth; read-out: Cell activity (IC50 μM) MV-4-11 3d-Growth
Source text: Published bromodomain inhibitors JQ1 and iBET 151 have shown activity in variety of cancer cells such leukemia and lymphoma, multiple myeloma cells, NUT midline carcinoma and glioblastoma cells (Dawson M A et al. 2011; Delmore J E 2011; Chen Z et al. 2013; Filippakopoulos P et al. 2010; Mertz J A et al. 2011; Ott C J et al. 2012). In this study, we test compounds in different cancer cell lines. MV-4-11 and MOLM-13 are AML cell lines harboring a MLL-AF4 and MLL-AF9 translocation, respectively. MM.1S is a multiple myeloma cell line. SK-N-AS, IMR-32 and SK-N-BE(2) are neuroblastoma cell lines. IMR-32 and SK-N-BE(2) cell lines harbor MYCN amplifications.
MV-4-11, MM.1S, IMR-32, SK-N-AS and SK-N-BE(2) were obtained from ATCC (IL, USA) and MOLM-13 were purchased from DSMZ (Braunschweig, German). Cells are cultured as recommended by their sources. For growth inhibition studies 3000 cells are seeded in wells of a 96-well plate in 75 μL of culture media. After several hours, growth media containing compounds of formula (I) are added to the wells. Compound at a maximal concentration of 5 mM was serially diluted 1:3 for a total of 8 point titration with DMSO as a control. A 1 μL aliquot of each dilution point is added to 249 μL growth media and 75 μL is added to each well containing cells, providing 10 μM compound at the maximum concentration point. The final concentration of DMSO in all wells is 0.2%. Cells are incubated for 72 hours, and 25 μL of CellTiter Glo Reagent (Promega GA, USA) is added to each well. Plates are shaken for approximately 10 minutes and chemiluminescent signal is read on Tecan microplate reader. The measured luminescence correlates directly with cell number.
All data is normalized to the mean of eight DMSO high control wells on each plate. A four parameter curve fit of the following formula was then applied: Y=a+(b−a)/(1+(x/c)^d) Where ‘a’ is the minimum, ‘b’ is the maximum, ‘c’ is the pIC50 and ‘d’ is the Hill slope. […] Myc Reporter Assay

IC50	Compound
1 to 10 µM	Cc1noc(C)c1-c1ccc2c(I)cn([C@@H](C)c3ccccn3)c2c1 [P-1051, 4-[3-iodo-1-[(1S)-1-(2-pyridyl)ethyl]indol-6-yl]-3,5-dimethyl-isoxazole]
< 1 µM	Cc1noc(C)c1-c1cnc2c(I)cn(Cc3ccccc3C#N)c2c1 [P-0921, 2-[[6-(3,5-dimethylisoxazol-4-yl)-3-iodo-pyrrolo[3,2-b]pyridin-1-yl]methyl]benzonitrile]
1 to 10 µM	COC(=O)c1ccc(-c2c[nH]c3cc(-c4c(C)noc4C)cnc23)cc1 [P-1033, methyl 4-[6-(3,5-dimethylisoxazol-4-yl)-1H-pyrrolo[3,2-b]pyridin-3-yl]benzoate]

From patent publication US10519177B2, “Heterocyclic compounds and uses thereof” (Plexxikon Inc., priority 2013, dated 2019)
